“And” between values parts separate entries of the source, which are not always exact repeats. Identical values can stand only once. Like-named read-outs stand apart in the source and are kept apart here. Marks after values point to notes of the source that are not given here.
Assays:
clinical = details: female, human, in vivo
[1] = female, human, in vivo
[2] = mean ± S.D., N = 5; for Urinary excretion (total) during the first 24 h: after enzymatic deconjugation
[3] = for unconjugated form in serum: before enzymatic deconjugation, early time points of medium and high dose subjects; for Cmax / half-life / Tmax / Vd/F: female, human, serum, po; for CL/F: oral
Ishikawa cell line = details: read-out: EC50, estrogenicity; Ishikawa cells; cited from earlier work
[4] = cited from earlier work
[5] = cited from earlier work; remark: listed apart in the source
[6] = rats, cited from earlier work
[7] = in the stomach; cited from earlier work
[8] = rats, 100 mg/kg XN daily by oral gavage for 5 days; cited from earlier work
[9] = 2 capsules/day, medium dose (2 capsules), mean ± S.D., N = 5
[10] = 2 capsules/day, T1/2, medium dose (2 capsules), mean ± S.D., N = 5
[11] = 4 capsules/day, high dose (4 capsules), mean ± S.D., N = 5
[12] = 4 capsules/day, T1/2, high dose (4 capsules), mean ± S.D., N = 5
[13] = high dose (4 capsules), mean ± S.D., N = 5
[14] = low dose (1 capsule), mean ± S.D., N = 5
[15] = medium dose (2 capsules), mean ± S.D., N = 5
[16] = half-life, across all dosages of the hop extract

Row | Urinary excretion (total) during the first 24 h ([2]; high dose) | Urinary excretion (% of dose) during the first 24 h ([2]; high dose) | Urinary excretion (total) during the first 24 h ([2]; low dose) | Urinary excretion (% of dose) during the first 24 h ([2]; low dose) | Urinary excretion (total) during the first 24 h ([2]; medium dose) | Urinary excretion (% of dose) during the first 24 h ([2]; medium dose) | unconjugated form in serum [3] | Cmax [3, 9] | half-life [3, 10] | Tmax [3, 9] | Vd/F [3, 9] | Cmax [3, 11] | half-life [3, 12] | Tmax [3, 11] | Vd/F [3, 11] | CL/F [3, 13] | CL/F [3, 14] | CL/F [3, 15] | half-life [3, 16] | Structure (SMILES) | other results
1 |  |  |  |  |  |  |  |  |  |  |  |  |  |  |  |  |  |  |  | CC(C)=CCc1c(O)cc2c(c1O)C(=O)C[C@@H](c1ccc(O)cc1)O2 [6-PN, 6-prenylnaringenin] | Vd/F (clinical; apparent volume of distribution): 887 to 1770 L; AUC(0-inf) (clinical; po, AUC0-inf): 69.2 ± 60 ng·h/mL; half-life (clinical; po, T1/2): 1410 ± 414 min; Vd/F (clinical; po): 887 ± 581 L; half-life (clinical; po, half-life): 1260 to 1440 min; AUC0-24 ratios after normalization by dose [1]: 1: 1.2: 0.5
2 | 172 ± 67.4 nmol | 1.902±0.746% | 29.8 ± 32.3 nmol | 1.318±1.428% | 89.5 ± 54.5 nmol | 1.98±1.205% | detected | 19.1 ± 15.5 ng/mL | 1490 ± 1460 min | 3.2 ± 3.2 h | 99 ± 56 L | 37.6 ± 17.6 ng/mL | 1190 ± 522 min | 4 ± 4.8 h | 182 ± 53 L | 7.3 ± 3.5 L/h | 7.1 ± 4.2 L/h | 5.7 ± 4.9 L/h |  | COc1cc(O)c(CC=C(C)C)c2c1C(=O)CC(c1ccc(O)cc1)O2 (centres unmarked) [IX, isoxanthohumol] | 
3 | 29.4 ± 22.9 nmol | 1.001±0.781% | 5.1 ± 4.4 nmol | 0.693±0.597% | 21.3 ± 21.6 nmol | 1.449±1.467% | no free 8-PN was detected | 3.9 ± 2.6 ng/mL | > 1440 min | 7 ± 9.7 h | 186 ± 186 L | 6.7 ± 3.8 ng/mL | > 1440 min | 2.8 ± 4 h | 271 ± 216 L | 13.7 ± 5.5 L/h | 11.1 ± 3.4 L/h | 10.4 ± 8.1 L/h | > 1440 min | CC(C)=CCc1c(O)cc(O)c2c1O[C@H](c1ccc(O)cc1)CC2=O [8-PN, 8-prenylnaringenin] | EC50 (Ishikawa cell line): 13 nM; time of secondary peak due to enterohepatic recirculation ([4]; post dose, women): 5 to 8 h; AUC0-24 ([4]; single oral dose of 50 mg 8-PN, women): 453 h^.ng/mL; share of dose recovered in feces within 48 h ([4]; single oral doses to women): 21-24%; AUC0-24 of a theoretical dose of 50 mg 8-PN in the hop extract ([3]; extrapolated assuming AUC linear with dose): 2520 h^.ng/mL; ratio of total serum concentrations 8-PN/IX ([3]; mean of the other 4 subjects, high dose): 0.14; ratio of total serum concentrations 8-PN/IX ([3]; mean value, medium dose): 0.17; ratio of total serum concentrations 8-PN/IX ([3]; one subject with higher exposure, high dose, after enzymatic deconjugation): 0.35; ratio of total serum concentrations 8-PN/IX ([3]; one subject with higher exposure, medium dose): 0.65
4 | 138 ± 113 nmol | 0.058±0.047% | 23.9 ± 17.9^a nmol | 0.040±0.030% | 37.0 ± 26.3 nmol | 0.031±0.022% | detected | 22.2 ± 12.1 ng/mL | 570 ± 132 min | 3.6 ± 2.6 h | 3770 ± 1390 L | 27.6 ± 8.9 ng/mL | 1240 ± 762 min | 1.8 ± 1.8 h | 7880 ± 1810 L | 329 L/h and 329 ± 163 L/h | 657 L/h and 657 ± 670 L/h | 278 L/h and 278 ± 87 L/h | ~1140 min | COc1cc(O)c(CC=C(C)C)c(O)c1C(=O)/C=C/c1ccc(O)cc1 [XN, xanthohumol] | elimination half-life ([5]; humans, oral pure XN): 18 to 20 h; time of secondary peak due to enterohepatic recirculation ([5]; men and women): 4 h; share recovered in the feces in the first 48 h ([6]; oral administration): 89%; elimination half-life ([6]; oral pure XN): 32 h; half-life of conversion to IX by acid-catalyzed cyclization [7]: 37 min; tissue distribution [8]: highest concentrations in the small intestine, colon and the liver

Source: PMC4265473 (Molecular nutrition & food research, 2014)
